Several values for one entry are separate records, joined by “and”; a condition that tells them apart may be missing. Identical values can stand only once.
Assays:
[1] = xn = mol fraction of the nth substance listed

CC(O)CCO (stereo not given)
101 kPa
Settings	viscosity
298.15 K	96.7 mPa·s and 96.8 mPa·s
303.15 K	69.7 mPa·s and 70.93 mPa·s
308.15 K	51.8 mPa·s and 53.72 mPa·s
313.15 K	40 mPa·s and 40.13 mPa·s
318.15 K	29.9 mPa·s and 31.22 mPa·s

CCCCCCC(C)O (stereo not given)
viscosity
Settings	298.15 K	303.15 K	308.15 K
101 kPa	6.49 mPa·s	–	–
101.3 kPa	5.929 mPa·s and 5.956 mPa·s	4.794 mPa·s and 4.803 mPa·s	3.909 mPa·s and 3.907 mPa·s
101.33 kPa	–	4.804 mPa·s	–

CCCCCCn1cc[n+](C)c1.[Cl][Fe-]([Cl])([Cl])[Cl]
101 kPa
Settings	viscosity [mPa·s]
293.15 K	73.92
298.15 K	58.96
303.15 K	47.89
308.15 K	39.56
313.15 K	33.07
318.15 K	28.06
323.15 K	24.02

CCOC(=O)C(Br)CC (stereo not given)
Settings	viscosity [mPa·s]
303.15 K, 101 kPa	1.529

CCn1cc[n+](C)c1C.O=S(=O)([N-]S(=O)(=O)C(F)(F)F)C(F)(F)F
101.3 kPa
Settings	viscosity [mPa·s]
293.15 K	88.09
298.15 K	69.84
303.15 K	56.37
308.15 K	46.1
313.15 K	38.26
318.15 K	32.15
323.15 K	27.31

CCn1cc[n+](CCOC)c1.O=S(=O)([O-])C(F)(F)F
101.33 kPa
Settings	viscosity [mPa·s]
293.15 K	92.53
298.15 K	72.51
303.15 K	57.87
308.15 K	47.34
313.15 K	39.02
318.15 K	32.59

CN(C)CCN(C)C
100 kPa
Settings	viscosity [mPa·s]
293.15 K	0.615
303.15 K	0.557
313.15 K	0.493
323.15 K	0.439

COCCn1cc[n+](C)c1.C[C@@H](O)[C@H](N)C(=O)[O-]
100 kPa
Settings	viscosity [mPa·s]
298.15 K	900.5
303.15 K	625.4
308.15 K	362.1
313.15 K	260
318.15 K	184.4
323.15 K	136.8

COS(=O)(=O)[O-].Cn1cc[n+](C)c1
viscosity [mPa·s]
Settings	298.15 K	303.15 K	308.15 K	313.15 K
100 kPa	93.4	–	–	–
101 kPa	78	61.9	49.9	40.9

NCCNCCNCCN
101 kPa
Settings	viscosity [mPa·s]
303.15 K	25.41
313.15 K	15.31
323.15 K	9.867

O=C(Cl)c1ccccc1
Settings	viscosity [mPa·s]
303.15 K, 101 kPa	1.244

[2H]OCCCCC
Settings	viscosity [mPa·s]
306.3 K, 101.33 kPa	2.685

c1ccncc1
viscosity
Settings	293.15 K	298 K	298.15 K	298.25 K	303.15 K	308.15 K	313.15 K	318.15 K	323.15 K
100 kPa	0.9801 mPa·s	–	0.9155 mPa·s	–	0.8568 mPa·s	0.8032 mPa·s	0.7546 mPa·s	0.7103 mPa·s	0.6698 mPa·s
101 kPa	–	–	–	–	–	0.76 mPa·s and 0.7914 mPa·s	0.714 mPa·s (2×) and 0.724 mPa·s	0.6939 mPa·s	0.645 mPa·s and 0.6248 mPa·s
101.3 kPa	–	0.882 mPa·s	0.903 mPa·s	–	–	0.75 mPa·s	–	0.675 mPa·s	–
101.33 kPa	–	–	–	0.88 mPa·s	0.828 mPa·s	0.78 mPa·s	0.8 mPa·s	0.66 mPa·s	–

NCCNCCNCCN + O
viscosity [mPa·s], [1]
Settings	303.15 K	313.15 K	323.15 K
100 kPa, x1 = 0.006	–	0.78	–
100 kPa, x1 = 0.014	–	0.98	–
100 kPa, x1 = 0.03	–	1.69	–
100 kPa, x1 = 0.076	–	6.61	–
101 kPa, x1 = 0.0299	2.243	1.716	1.359
101 kPa, x1 = 0.0502	5.399	3.454	2.481
101 kPa, x1 = 0.0759	11.81	7.786	5.213
101 kPa, x1 = 0.1097	22.1	13.05	8.624
101 kPa, x1 = 0.156	38.42	22.22	14.34
101 kPa, x1 = 0.2233	60.39	32.27	20.32
101 kPa, x1 = 0.3302	82.48	42.63	26.01
101 kPa, x1 = 0.5259	75.67	38.19	21.84
101 kPa, x1 = 0.7007	50.89	27.24	15.21
101 kPa, x1 = 0.7994	39.76	21.64	12.67
101 kPa, x1 = 0.9242	31.35	16.13	10.61

c1c[nH]cn1 + O=C1CCCCCN1
[1], 101 kPa, x2 = 0.5
Settings	viscosity [mPa·s]
303.2 K	49.07
313.1 K	25
323.1 K	16.2

CC(O)CCO (stereo not given) + O=C1CCCN1
Settings	viscosity [mPa·s]
[1], 308.15 K, 101 kPa, x2 = 0.7935	11.85

c1ccncc1 + OCC(O)CO
[1], 101 kPa
Settings	viscosity [mPa·s]
298.15 K, x1 = 0.6001	17.25
298.15 K, x1 = 0.8001	3.155
303.15 K, x1 = 0.4	66.75
308.15 K, x1 = 0.1	275.5
313.15 K, x1 = 0.2001	116.5
313.15 K, x1 = 0.4	36.35

CCCCCCC(C)O (stereo not given) + c1ccccc1
viscosity [mPa·s], [1], 101 kPa
Settings	298.15 K	303.15 K
x2 = 0.0555	5.871	4.689
x2 = 0.1239	5.076	4.101
x2 = 0.1912	4.353	3.577
x2 = 0.2386	3.886	3.224
x2 = 0.3153	3.181	2.703
x2 = 0.4353	2.241	2.018
x2 = 0.4865	1.923	1.764
x2 = 0.6072	1.318	1.264
x2 = 0.6941	1.008	0.986
x2 = 0.7432	0.876	0.876
x2 = 0.8011	0.761	0.754
x2 = 0.8599	0.693	0.667
x2 = 0.909	0.655	0.608
x2 = 0.9541	0.637	0.58

O=C(Cl)c1ccccc1 + c1ccccc1
[1], 303.15 K, 101 kPa
Settings	viscosity [mPa·s]
x2 = 0.1255	1.176
x2 = 0.2441	1.108
x2 = 0.3564	1.04
x2 = 0.4627	0.9726
x2 = 0.5637	0.9048
x2 = 0.6596	0.8369
x2 = 0.7509	0.7688
x2 = 0.8379	0.7005
x2 = 0.9208	0.632

c1c[nH]cn1 + c1ccccc1
viscosity [mPa·s], [1], 101 kPa
Settings	x1 = 0.003214	x1 = 0.006433	x1 = 0.01278	x1 = 0.03561	x1 = 0.03951
303.15 K	0.57	0.578	0.595	–	–
323.15 K	–	–	0.457	0.505	0.513

c1ccncc1 + c1ccccc1
viscosity [mPa·s], [1], 101 kPa
Settings	x1 = 0.3943	x1 = 0.5905	x1 = 0.7944	x1 = 0.8965	x2 = 0.2	x2 = 0.4	x2 = 0.6	x2 = 0.8
293.15 K	–	–	–	–	0.893	0.832	0.77	0.709
298.15 K	0.7169	0.7726	0.8345	0.8601	–	–	–	–
313.15 K	–	–	–	–	0.678	0.632	0.585	0.538

c1cn[nH]c1 + c1ccccc1
viscosity [mPa·s], [1], 101 kPa
Settings	x1 = 0.02244	x1 = 0.04519	x1 = 0.05005	x1 = 0.1006
303.15 K	0.577	0.597	0.594	0.627
323.15 K	0.449	0.46	0.462	–
